Results reported in PubChem BioAssay (NCI).
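Interpolation was linear, between the two tested concentrations surrounding the appropriate level; five concentrations were tested over 48 hours in 96-well plates. GI50 marks 50% less growth. TGI: total growth inhibition.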

Legend:
Assay in all cases: NCI tumour cell line growth inhibition, 48 h
[1] = test system: MCF7 breast
[2] = test system: SW-620 colon
[3] = test system: 786-0 renal
[4] = test system: IGROV1 ovarian
[5] = test system: OVCAR-3 ovarian
[6] = test system: NCI-H460 lung
[7] = test system: RPMI-8226 leukemia
[8] = test system: SK-MEL-2 melanoma
[9] = test system: SF-539 CNS
[10] = test system: HT29 colon
[11] = test system: T-47D breast
[12] = test system: NCI-H522 lung
[13] = test system: HOP-92 NSCLC
[14] = test system: OVCAR-4 ovarian
[15] = test system: SF-295 CNS
[16] = test system: HOP-62 NSCLC
[17] = test system: SNB-19 CNS
[18] = test system: MDA-MB-231 breast
[19] = test system: HCC-2998 colon
[20] = test system: NCI-H23 lung
[21] = test system: U251 CNS
[22] = test system: HL-60(TB) leukemia
[23] = test system: RXF 393 renal
[24] = test system: CAKI-1 renal
[25] = test system: TK-10 renal
[26] = test system: SN12C renal
[27] = test system: HCT-116 colon
[28] = test system: NCI-H226 lung
[29] = test system: COLO 205 colon
[30] = test system: CCRF-CEM leukemia
[31] = test system: MDA-N
[32] = test system: SNB-75 CNS
[33] = test system: SF-268 CNS
[34] = test system: UO-31 renal
[35] = test system: OVCAR-8 ovarian
[36] = test system: PC-3 prostate
[37] = test system: K-562 leukemia
[38] = test system: ACHN renal
[39] = test system: SR leukemia
[40] = test system: MDA-MB-435
[41] = test system: UACC-62 melanoma
[42] = test system: UACC-257 melanoma
[43] = test system: A498 renal
[44] = test system: MOLT-4 leukemia
[45] = test system: HCT-15 colon
[46] = test system: NCI/ADR-RES ovarian
[47] = test system: LOX IMVI melanoma
[48] = test system: HS 578T breast
[49] = test system: SK-MEL-5 melanoma
[50] = test system: BT-549 breast
[51] = test system: M14 melanoma
[52] = test system: OVCAR-5 ovarian
[53] = test system: EKVX NSCLC
[54] = test system: A549 NSCLC
[55] = test system: DU-145 prostate
[56] = test system: SK-MEL-28 melanoma
[57] = test system: MALME-3M melanoma
[58] = test system: SK-OV-3 ovarian
[59] = test system: KM12 colon

## CNC(=O)OCc1c(COC(=O)NC)c(-c2ccc(Cl)c(Cl)c2)n2c1SCC2
[1]
  TGI: 27.2 µM
[2]
  TGI: 26.3 µM
[3]
  TGI: > 46.8 µM
[4]
  GI50: 3.16 µM
  TGI: 26.9 µM
[5]
  TGI: 25.2 µM
[6]
  TGI: 19.9 µM
[7]
  TGI: 39.7 µM
[8]
  TGI: 26.7 µM
[9]
  TGI: 26.9 µM
[10]
  TGI: 37.5 µM
[11]
  TGI: 57.2 µM
[12]
  TGI: 21.5 µM
[13]
  TGI: 17.6 µM
[14]
  GI50: 3.59 µM
  TGI: 25.5 µM
[15]
  TGI: 35.7 µM
[16]
  TGI: 50.7 µM
[17]
  TGI: > 84.9 µM
[18]
  TGI: 34.4 µM
[19]
  TGI: 30 µM
[20]
  TGI: 40.5 µM
[21]
  TGI: 22.2 µM
[22]
  TGI: 25.4 µM
[23]
  TGI: 13.8 µM
[24]
  TGI: 23.9 µM
[25]
  TGI: 19.1 µM
[26]
  TGI: 34 µM
[27]
  TGI: 26 µM
[28]
  TGI: 2.67 µM
[29]
  TGI: 26.7 µM
[30]
  TGI: 64.9 µM
[31]
  TGI: 42.7 µM
[32]
  TGI: 25.1 µM
[33]
  TGI: 32.9 µM
[34]
  TGI: 25.5 µM
[35]
  TGI: 39.8 µM
[36]
  TGI: 55.1 µM
[37]
  TGI: 52 µM
[38]
  TGI: 17.6 µM
[39]
  TGI: 39 µM
[40]
  TGI: 33.3 µM
[41]
  TGI: 8.94 µM
[42]
  TGI: 31.7 µM
[43]
  TGI: 2.07 µM
[44]
  TGI: 47.3 µM
[45]
  TGI: 28.1 µM
[46]
  TGI: 40 µM
[47]
  TGI: 25.5 µM
[48]
  TGI: 51 µM
[49]
  TGI: 25.1 µM
[50]
  GI50: 6.23 µM
  TGI: 22.4 µM
[51]
  TGI: 37.9 µM
[52]
  TGI: 10.8 µM
[53]
  TGI: 72 µM
[54]
  TGI: > 88 µM
[55]
  TGI: 39.5 µM
[56]
  TGI: 37.3 µM
[57]
  TGI: 37.8 µM
[58]
  TGI: 28.1 µM
[59]
  TGI: 36.8 µM

## Cc1c(F)c(N)c2c(=O)cc(-c3ccc(NC(=O)CN(C)C)c(F)c3)oc2c1F
[1]
  TGI: > 66.1 µM
[2]
  TGI: > 74.6 µM
[3]
  TGI: > 100 µM
[4]
  TGI: > 100 µM
[5]
  TGI: > 60.9 µM
[6]
  TGI: > 100 µM
[7]
  TGI: > 83 µM
[8]
  TGI: > 100 µM
[9]
  TGI: > 100 µM
[10]
  TGI: > 100 µM
[11]
  TGI: > 100 µM
[12]
  TGI: > 100 µM
[13]
  GI50: > 36.4 µM
  TGI: 99.4 µM
[14]
  TGI: > 92.5 µM
[15]
  TGI: > 100 µM
[16]
  GI50: > 100 µM
  TGI: > 100 µM
[17]
  TGI: > 100 µM
[18]
  TGI: > 83.7 µM
[19]
  TGI: > 100 µM
[20]
  TGI: > 100 µM
[21]
  TGI: > 81.1 µM
[22]
  TGI: 46.4 µM
[23]
  TGI: > 100 µM
[24]
  TGI: > 66.1 µM
[25]
  TGI: > 100 µM
[26]
  TGI: > 100 µM
[27]
  TGI: > 100 µM
[28]
  TGI: > 100 µM
[29]
  TGI: > 100 µM
[30]
  TGI: > 76.6 µM
[31]
  TGI: > 100 µM
[32]
  GI50: 32.9 µM
  TGI: > 100 µM
[33]
  TGI: > 100 µM
[34]
  TGI: > 100 µM
[35]
  TGI: > 100 µM
[36]
  TGI: > 100 µM
[37]
  TGI: 98.9 µM
[38]
  TGI: > 100 µM
[39]
  TGI: 61 µM
[40]
  TGI: > 100 µM
[41]
  TGI: > 94.2 µM
[42]
  TGI: > 100 µM
[43]
  TGI: 5.77 µM
[44]
  TGI: > 71.8 µM
[45]
  TGI: > 100 µM
[46]
  TGI: > 100 µM
[47]
  TGI: > 100 µM
[48]
  TGI: > 100 µM
[49]
  TGI: > 100 µM
[50]
  TGI: > 100 µM
[51]
  TGI: > 100 µM
[52]
  TGI: > 100 µM
[54]
  TGI: > 100 µM
[55]
  TGI: > 100 µM
[56]
  TGI: > 100 µM
[57]
  TGI: > 100 µM
[58]
  TGI: > 100 µM
[59]
  TGI: > 100 µM

## CCOC(=O)CCc1cc(=O)oc2cc(O)cc(O)c12
[1]
  TGI: > 100 µM
[2]
  TGI: > 100 µM
[3]
  TGI: > 100 µM
[4]
  TGI: > 100 µM
[5]
  TGI: > 100 µM
[6]
  TGI: > 100 µM
[7]
  TGI: > 100 µM
[8]
  TGI: > 100 µM
[9]
  TGI: > 100 µM
[10]
  TGI: > 100 µM
[11]
  TGI: > 100 µM
[12]
  TGI: > 100 µM
[13]
  TGI: > 100 µM
[14]
  TGI: > 100 µM
[15]
  TGI: > 100 µM
[16]
  TGI: > 100 µM
[17]
  TGI: > 100 µM
[18]
  TGI: > 100 µM
[19]
  TGI: > 100 µM
[20]
  TGI: > 100 µM
[21]
  TGI: > 100 µM
[22]
  TGI: > 100 µM
[23]
  TGI: > 100 µM
[24]
  TGI: > 100 µM
[25]
  TGI: > 100 µM
[26]
  TGI: > 100 µM
[27]
  TGI: > 100 µM
[28]
  TGI: > 100 µM
[29]
  TGI: > 100 µM
[30]
  TGI: > 100 µM
[31]
  TGI: > 100 µM
[32]
  TGI: > 100 µM
[33]
  TGI: > 100 µM
[34]
  TGI: > 100 µM
[35]
  TGI: > 100 µM
[36]
  TGI: > 100 µM
[37]
  TGI: > 100 µM
[38]
  TGI: > 100 µM
[39]
  TGI: > 100 µM
[40]
  TGI: > 100 µM
[41]
  TGI: > 100 µM
[42]
  TGI: > 100 µM
[43]
  TGI: > 100 µM
[44]
  TGI: > 100 µM
[45]
  TGI: > 100 µM
[46]
  TGI: > 100 µM
[47]
  TGI: > 100 µM
[48]
  TGI: > 100 µM
[49]
  TGI: > 100 µM
[50]
  TGI: > 100 µM
[51]
  TGI: > 100 µM
[52]
  TGI: > 100 µM
[53]
  TGI: > 100 µM
[54]
  TGI: > 100 µM
[55]
  TGI: > 100 µM
[56]
  TGI: > 100 µM
[57]
  TGI: > 100 µM
[58]
  TGI: > 100 µM
[59]
  TGI: > 100 µM
